The results in this text go back to ChEMBL document CHEMBL1127046, “Antitumor agents. 3. Synthesis and biological activity of 4 beta-alkyl derivatives containing hydroxy, amino, and amido groups of 4'-O-demethyl-4-desoxypodophyllotoxin as antitumor agents” (J Med Chem, 1993).

Assay [1] can be described thus: Inhibition of DNA topoisomerase II from rat liver measured as 50% reduction in the amount of minicircle DNA relative to the control.
In another assay the test system is P388. Description: Cytotoxicity against P388 leukemia. Format: functional, cell-based. The settings on record: Mus musculus.
Another assay deals with Tubulin (Bos taurus, UniProt Q6B856+Q862L2+Q862F3). The experiment in a line: Drug concentration needed to produce a 50% reduction of bovine brain tubulin polymerization relative to the control.
Assay [2] deals with L1210. Description: The number of mice survived for 30 days at the dose of 10 (mg/kg/day). Type of assay: functional, Mus musculus.
The subject of assay [3] is L1210. Description: Antitumor activity in vivo expressed as the percentage increase in life span at the dose of 10 (mg/kg/day). Type of assay: functional, Mus musculus.

Structures are written as SMILES.

Turning to `COc1cc([C@@H]2c3cc4c(cc3[C@@H](CC(=O)N(C)CCN(C)C)C3COC(=O)[C@@H]32)OCO4)cc(OC)c1O.Cl` (stereo partly drawn), the concentration for half-maximal inhibition (IC50) (in general, the concentration that gives 50% inhibition) in assay [1] was 252 µM; in the assay on P388 it was 0.032 µM; against Tubulin, above 100 µM.
On to `COc1cc([C@@H]2c3cc4c(cc3[C@@H](CCN3CCC[C@@H]3CO)C3COC(=O)[C@@H]32)OCO4)cc(OC)c1O.Cl` (stereo partly drawn), for which the IC50 in assay [1] was 112 µM; with P388 it was 0.063 µM; against Tubulin, above 62 µM.
The corresponding values for `COc1cc([C@@H]2c3cc4c(cc3[C@@H](CCN3CCCCC3)C3COC(=O)[C@@H]32)OCO4)cc(OC)c1O.Cl` (stereo partly drawn) are 67.7 µM, 0.012 µM and above 167 µM.
`COc1cc([C@@H]2c3cc4c(cc3[C@@H](CCCN(C)C)C3COC(=O)[C@@H]32)OCO4)cc(OC)c1O.Cl` (stereo partly drawn): the concentration for half-maximal inhibition (IC50) in assay [1] was 73.5 µM; with P388, 0.012 µM; against Tubulin, above 167 µM.
Consider `COc1cc([C@@H]2c3cc4c(cc3[C@@H](CCCO)C3COC(=O)[C@@H]32)OCO4)cc(OC)c1O` (stereo partly drawn), for which the half-inhibitory concentration (IC50) in assay [1] came out at 42.1 µM; in the assay with P388, 0.05 µM; against Tubulin, 26 µM.
For the compound `COc1cc([C@@H]2c3cc4c(cc3[C@@H](CC(=O)NCCN3CCOCC3)C3COC(=O)[C@@H]32)OCO4)cc(OC)c1O.Cl` (stereo partly drawn), the IC50 was 0.22 µM in the assay on P388 and above 100 µM against Tubulin.
As for `COc1cc([C@@H]2c3cc4c(cc3[C@@H](CCO)C3COC(=O)[C@@H]32)OCO4)cc(OC)c1O` (stereo partly drawn), the values for the IC50 (in assay [1]; in the assay with P388; against Tubulin) were 13.8 µM, 0.05 µM and 2 µM, respectively.
Regarding `COc1cc([C@@H]2c3cc4c(cc3[C@@H](CCN3CCOCC3)C3COC(=O)[C@@H]32)OCO4)cc(OC)c1O.Cl` (stereo partly drawn), the values for the half-maximal inhibitory concentration (IC50) (in assay [1]; in the assay on P388; on Tubulin) were 58.3 µM, 0.026 µM and above 167 µM, respectively. Also, the Survivors in the assay with L1210 [2] is 0. Further, the ILS max with L1210 [3] was 81%.
Turning to `COc1cc([C@@H]2c3cc4c(cc3[C@@H](CCN(C)CCCN(C)C)C3COC(=O)[C@@H]32)OCO4)cc(OC)c1O.Cl.Cl` (stereo partly drawn), the IC50 is 26.9 µM in assay [1], 0.055 µM with P388 and above 100 µM at Tubulin.
Regarding `COc1cc([C@@H]2c3cc4c(cc3[C@@H](CCN(C)N3CCN(C)CC3)C3COC(=O)[C@@H]32)OCO4)cc(OC)c1O.Cl.Cl` (stereo partly drawn), the half-maximal inhibitory concentration (IC50) was 32.3 µM in assay [1], 0.0043 µM with P388 and above 100 µM at Tubulin.
With `COc1cc([C@@H]2c3cc4c(cc3[C@@H](CC(=O)O)C3COC(=O)[C@@H]32)OCO4)cc(OC)c1O` (stereo partly drawn), half-maximal inhibition in the assay with P388 (IC50) was put at 15 µM.
Turning to `COc1cc([C@@H]2c3cc4c(cc3[C@@H](CCN(C)Cc3ccccn3)C3COC(=O)[C@@H]32)OCO4)cc(OC)c1O.Cl.Cl` (stereo partly drawn), the results for the 50% inhibitory concentration (IC50) (in assay [1]; in the assay with P388; against Tubulin) were 31.4 µM, 0.14 µM and above 100 µM, respectively.
`COc1cc([C@@H]2c3cc4c(cc3[C@@H](CCN(C)N(C)c3ccccc3)C3COC(=O)[C@@H]32)OCO4)cc(OC)c1O` (stereo partly drawn) returned a concentration for half-maximal inhibition (IC50) in the assay on P388 above 1 µM.
As for `COc1cc([C@@H]2c3cc4c(cc3[C@@H](CCN(C)CCO)C3COC(=O)[C@@H]32)OCO4)cc(OC)c1O.Cl` (stereo partly drawn), the IC50 was 17.2 µM in assay [1], 0.07 µM in the assay on P388 and above 100 µM against Tubulin.
The like results for `COCCN(C)CC[C@@H]1c2cc3c(cc2[C@@H](c2cc(OC)c(O)c(OC)c2)[C@H]2C(=O)OCC12)OCO3.Cl` (stereo partly drawn) were, in that order, 75.8 µM, 0.16 µM and above 100 µM.
As to `COc1cc([C@@H]2c3cc4c(cc3[C@@H](CC(=O)NCCc3cccn3C)C3COC(=O)[C@@H]32)OCO4)cc(OC)c1O.Cl` (stereo partly drawn), the IC50 with P388 is 1.5 µM; on Tubulin, above 100 µM.
Take `COc1cc([C@@H]2c3cc4c(cc3[C@@H](CCN(C)CCCCCCN(C)C)C3COC(=O)[C@@H]32)OCO4)cc(OC)c1O.Cl.Cl` (stereo partly drawn): the values for the IC50 (in assay [1]; in the assay on P388; against Tubulin) were 30 µM, 0.037 µM and above 133 µM, respectively.
As to `COc1cc([C@@H]2c3cc4c(cc3[C@@H](CCNCCN(C)C)C3COC(=O)[C@@H]32)OCO4)cc(OC)c1O.Cl.Cl` (stereo partly drawn), the results for the 50% inhibitory concentration (IC50) (in assay [1]; in the assay with P388; at Tubulin) were 13.3 µM, 0.04 µM and above 100 µM, respectively.
As to `COc1cc([C@@H]2c3cc4c(cc3[C@@H](CCN(C)C(CO)CO)C3COC(=O)[C@@H]32)OCO4)cc(OC)c1O.Cl` (stereo partly drawn), the 50% inhibitory concentration (IC50) in assay [1] was 25.1 µM; in the assay with P388, 0.66 µM; against Tubulin, above 167 µM.
The like results for `COc1cc([C@@H]2c3cc4c(cc3[C@@H](CC(=O)N3CCC(N5CCCCC5)CC3)C3COC(=O)[C@@H]32)OCO4)cc(OC)c1O.Cl` (stereo partly drawn) were, in that order, 266 µM, 0.0084 µM and above 100 µM.
The corresponding values for `COc1cc([C@@H]2c3cc4c(cc3[C@@H](CC(=O)NCCN3CCCCC3)C3COC(=O)[C@@H]32)OCO4)cc(OC)c1O.Cl` (stereo partly drawn) are 60.6 µM, 3 µM and above 100 µM.
The like results for `COc1cc([C@@H]2c3cc4c(cc3[C@@H](CCN(C)CCN3CCOCC3)C3COC(=O)[C@@H]32)OCO4)cc(OC)c1O.Cl.Cl` (stereo partly drawn) were, in that order, 116 µM, 0.26 µM and above 167 µM.
For the compound `CCN(CC)CCN(C)CC[C@@H]1c2cc3c(cc2[C@@H](c2cc(OC)c(O)c(OC)c2)[C@H]2C(=O)OCC12)OCO3.Cl.Cl` (stereo partly drawn), the results for the IC50 (in assay [1]; in the assay on P388; on Tubulin) were 53.8 µM, 0.037 µM and above 100 µM, respectively.
As to `COc1cc([C@@H]2c3cc4c(cc3[C@@H](CCN(C)Cc3ccncc3)C3COC(=O)[C@@H]32)OCO4)cc(OC)c1O.Cl.Cl` (stereo partly drawn), the IC50 in assay [1] is 31.4 µM; in the assay on P388 it was 0.1 µM; on Tubulin, above 100 µM.
In the case of `COc1cc([C@@H]2c3cc4c(cc3[C@@H](CCN(C)Cc3ccccc3)C3COC(=O)[C@@H]32)OCO4)cc(OC)c1O.Cl` (stereo partly drawn), the IC50 in assay [1] is 97.3 µM; with P388, 0.15 µM; on Tubulin, above 167 µM. The compound further came in with a Survivors in the assay with L1210 [2] of 0. This compound registered an ILS max with L1210 [3] of 53%.
On to `COc1cc([C@@H]2c3cc4c(cc3[C@@H](CC(=O)NCc3ccncc3)C3COC(=O)[C@@H]32)OCO4)cc(OC)c1O.Cl` (stereo partly drawn), for which the IC50 is 2.2 µM with P388 and above 100 µM at Tubulin.
Turning to `COc1cc([C@@H]2c3cc4c(cc3[C@@H](CCN(C)C3CCCCC3)C3COC(=O)[C@@H]32)OCO4)cc(OC)c1O.Cl` (stereo partly drawn), the results for the IC50 (in assay [1]; in the assay on P388; at Tubulin) were 60.9 µM, 0.033 µM and above 167 µM, respectively.
